Laboratory results taken from patent US20050020544A1, “Bicyclic CB2 cannabinoid receptor ligands” (priority 2002, published 2005).

Assays:
Adult female BALB/c mice = type: in vivo, mouse; conditions: i.p. twice
Method: Adult female BALB/c mice (20 g average body weight, Harlan, Israel) were sensitized on day 0 and day 1 by application of 30 μl of 0.15% Dinitrofluorobenzene (DNFB) diluted in acetone on the shaved skin of the abdomen. On day 6 the animals were challenged by application of 10 μl of DNFB in acetone on one ear. The contralateral ear was not challenged but received the application of 10 μl acetone. Test compounds were administered at increasing doses from 0 to 15 mg/kg i.p. twice, the first injection was immediately after DNFB challenge (on day 6) and the second injection was 16 hours post challenge (on day 7). Each treatment group comprised at least 7 animals. Dexamethasone (DXM) was used as positive control. Ear thickness was determined (in 0.01 mm units) 24 hours after challenge (and 6 hours after second treatment on day 7) using a dial thickness gauge (Mitutoyo, Japan).
Results are analyzed as ear thickness of DNFB treated over DNFB untreated contralateral ear. The impact of the test compound was further assessed by comparing its mean impact on the animals of the treatment group to the response generated by the appropriate vehicle only.

[1] = test system: BALB/c inbred female mice; assay: ConA induced liver injury; type: in vivo, mouse; conditions: 1 mg/kg i.v., 8 hours of ConA treatment
Method: Each experimental group contains at least 5 BALB/c inbred female mice (25 g average weight, Harlan, Israel). The negative control group is composed of mice injected with saline instead of ConA. The injection of ConA (Sigma) is done i.v. at the base of the tail at the dose of 10 mg/kg in saline. The treatments are injected i.v. at 1 mg/kg, 30 minutes prior to the ConA injection. Compounds are dissolved in CREMOPHOR EL®:ethanol and vehicle only was included as an internal control.
Impact of treatment is monitored at three levels. First, blood samples (200-400 μl) are collected at predetermined time points alter ConA injection, using retro-orbital puncture. After short centrifugation (5000 rpm for 2 min) serum is recovered and stored at −80° C. until further use for determination of cytokines levels by ELISA and aminotransferase leakage from the liver as a marker for liver injury. In parallel, the level of cytokines, or other inflammatory mediators, is also determined in the organs of interests. For this purpose, the mice are killed by dislocation of the cervical vertebrae, at predetermined time points following ConA injection. […] Cells are incubated for 24 hours and cytokine levels in the supernatant are determined by ELISA as previously described.
The effect of compound A on liver injury was assessed by measuring the level of ALT in the plasma following 8 hours of ConA treatment. […]

Sprague Dawley male rats = assay: Tail flick model, i.v.; type: in vivo, rat; conditions: for % animals with latency time twice superior to vehicle: ninety minutes
Method: Each treatment group contained at least 6 animals. […] Its vehicle, saline, was also included as control.
Two parameters were used to analyze the results, the latency time and the % of animals showing analgesia. […] The results in both cases are expressed as mean±SE.
Similar studies were performed in Sprague Dawley male rats where the drug was injected i.v. instead of i.p. in the mice model. […] These observations are consistent with the route of administration. In the i.p. study the first time point post-injection was 30 minutes, while it was 10 minutes following i.v. injection thus the onset of action was not thoroughly determined in these experiments. […] At the last time point tested (330 minutes following injection), almost 70% of the animals treated with 4 mg/kg of compound A retained increase resistance to pain.

[2] = test system: IL-1β secretion from activated RAW 264.7 macrophages; assay: Inhibition of IL-1β in LPS activated macrophages (ELISA); type: cell-based; conditions: Mus musculus, RAW264.7, 24 h, read-out: inhibition of IL-1β secretion
Method: The technique used to quantify the amount of a given protein in a liquid sample, either tissue culture supernatant or body fluid, is based on Enzyme Linked ImmunoSorbent Assay (ELISA) methodology. Either commercially available or established in house, the assay is based on the capture of the protein of interest by specific antibodies bound to the bottom of an ELISA plate well. […] Again the unbound material is washed away, the samples are then incubated with the appropriate substrate yielding a calorimetric reaction. The reaction is stopped and reading is performed in a spectrophotometer at the appropriate wavelength. Samples are tested at least in duplicate and the appropriate standard curve, consisting of serial dilutions of the recombinant target protein, is incorporated on each plate. Concentration of the protein in the sample is calculated from the standard curve.
RAW 264.7 macrophages, a mouse cell line (ATCC # TIB-71), were grown in Dulbecco's modified Eagle's medium (DMEM) with 4 mM L-glutamine adjusted to contain 1.5 g/L sodium bicarbonate, 4.5 g/L glucose, and 10% heat inactivated fetal bovine serum. Cells were grown in tissue culture flasks and seeded at appropriate density into 24 wells tissue culture plates. 0.5×10^6 Raw cells in one milliliter were stimulated with 2 μg/ml Lipopolysaccharide E. coli 055:B5 (DIFCO Laboratories). The mouse macrophages were pre-treated for one hour with controls or 10 μM of bicyclic CB2 ligands and later on activated with LPS. Dexamethasone was used as a positive control at 50 nM. Supernatant was collected 4 hours (for PGE2) and 24 hours (for IL-1β and TNF-α) after activation, and the levels of the inflammatory agent under study were determined by ELISA, as previously described. Inhibition was calculated versus vehicle treated cells.

SMILES | calculated IC50 reduction in ear thickness (Adult female BALB/c mice) [mg/kg] | maximal inhibition (reduction in ear thickness) (Adult female BALB/c mice; doses 0 to 15 mg/kg, 24 hours after challenge) [%] | decrease in ALT in the plasma [1] [%] | % animals with latency time twice superior to vehicle (Sprague Dawley male rats; 3 mg/kg i.v.) [%] | % animals with increased resistance to pain (Sprague Dawley male rats; 4 mg/kg i.v., 330 minutes) [%] | % animals with latency time twice superior to vehicle (Sprague Dawley male rats; 4 mg/kg i.v.) [%] | inhibition at 10 µM [2] [%]
CCCCCCC(C)(C)c1cc(OC)c(C2C=C(CO)C3CC2C3(C)C)c(OC)c1 (single isomer, unassigned; (+)) [HU-308, (+) {4-[4-(1,1-dimethylheptyl)-2,6-dimethoxy-phenyl]-6,6-dimethyl-bicyclo[3.1.1]hept-2-en-2-yl}-methanol, reference compound] | 4.8 | ~60 | – | – | – | – | –
CCCCCCC(C)(C)c1cc(O)c(C2CC(=O)C3CC2C3(C)C)c(O)c1 (single isomer, unassigned; (-)) [Compound A, (−)-4-[4-(1,1-Dimethyl-heptyl)2,6-dihydroxy-phenyl]-6,6-dimethyl-bicyclo[3.1.1)heptan-2-one] | – | – | 65 | 100 | ~70 | 100 | 76
